{"source": "patent US12344600B2", "about": "“c-Myc mRNA translation modulators and uses thereof in the treatment of cancer” (Anima Biotech Inc., priority 2022, dated 2025)", "system": "c-Myc", "assay": "c-Myc immunofluorescence assay", "format": "cell-based, human", "conditions": "A549 cells, 24 hours, anti-c-Myc immunofluorescence", "summary_of_the_method": "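Read-out is imaged c-Myc immunofluorescence, nucleus-segmented, in A549 lung carcinoma cells exposed to compound dose series for 24 h after 48 h growth. Fixation 4% paraformaldehyde, Triton permeabilization, antibody staining at room temperature; EC50 from logistic fit of signal versus concentration.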"}
{"smiles": "C#CCCC1(CCNC(=O)N2CCN(c3nc(-c4ccc(OC)cc4)no3)CC2)N=N1", "note": "[Compound 246, N-(2-(3-(but-3-yn-1-yl)-3H-diazirin-3-yl)ethyl)-4-(3-(4-methoxyphenyl)-1,2,4-oxadiazol-5-yl)piperazine-1-carboxamide]", "values": [{"measurement": "Myc Efficacy (−LogEC50)", "result": "+ (+ >3 and <5)"}]}
{"smiles": "COc1cnc(-c2noc(N3CCC(C(=O)NCC4CCN(Cc5ccc(C)cc5)C4)CC3)n2)nc1", "note": "(centres unmarked) [Compound 247, 1-(3-(5-methoxypyrimidin-2-yl)-1,2,4-oxadiazol-5-yl)-N-((1-(4-methylbenzyl)pyrrolidin-3-yl)methyl)piperidine-4-carboxamide]", "values": [{"measurement": "Myc Efficacy (−LogEC50)", "result": "+ (+ >3 and <5)"}]}
{"smiles": "COc1ccc(-c2noc(N3CCN(C(=O)NCCCN4CCC(Cc5ccccn5)CC4)CC3)n2)cc1", "note": "[Compound 248, 4-(3-(4-methoxyphenyl)-1,2,4-oxadiazol-5-yl)-N-(3-(4-(pyridin-2-ylmethyl)piperidin-1-yl)propyl)piperazine-1-carboxamide]", "values": [{"measurement": "Myc Efficacy (−LogEC50)", "result": "+++ (+++ ≥6)"}]}
{"smiles": "COc1ccc(-c2noc(N3CCC(C(=O)NCC4(N(C)C)CCCCC4)CC3)n2)cc1", "note": "[Compound 249, N-((1-(dimethylamino)cyclohexyl)methyl)-1-(3-(4-methoxyphenyl)-1,2,4-oxadiazol-5-yl)piperidine-4-carboxamide]", "values": [{"measurement": "Myc Efficacy (−LogEC50)", "result": "+ (+ >3 and <5)"}]}
{"smiles": "COc1ccc(-c2noc(N3CCC(C(=O)NCC4CCN(C(C)(C)C)C4)CC3)n2)cc1", "note": "(centres unmarked) [Compound 250, N-((1-(tert-butyl)pyrrolidin-3-yl)methyl)-1-(3-(4-methoxyphenyl)-1,2,4-oxadiazol-5-yl)piperidine-4-carboxamide]", "values": [{"measurement": "Myc Efficacy (−LogEC50)", "result": "+ (+ >3 and <5)"}]}
{"smiles": "CCCN1CCC(NC(=O)C2CCN(c3nc(-c4ccc(OC)cc4)no3)CC2)CC1", "note": "[Compound 251, 1-(3-(4-methoxyphenyl)-1,2,4-oxadiazol-5-yl)-N-(1-propylpiperidin-4-yl)piperidine-4-carboxamide]", "values": [{"measurement": "Myc Efficacy (−LogEC50)", "result": "− (− ≤3)"}]}
{"smiles": "COc1ccc(-c2noc(N3CCC(C(=O)NC[C@H]4CCCN4C)CC3)n2)cc1", "note": "[Compound 252, (R)-1-(3-(4-methoxyphenyl)-1,2,4-oxadiazol-5-yl)-N-((1-methylpyrrolidin-2-yl)methyl)piperidine-4-carboxamide]", "values": [{"measurement": "Myc Efficacy (−LogEC50)", "result": "+ (+ >3 and <5)"}]}
{"smiles": "COc1ccc(-c2noc(N3CCC(C(=O)NC[C@H]4CCN(C)C4)CC3)n2)cc1", "note": "[Compound 253, (R)-1-(3-(4-methoxyphenyl)-1,2,4-oxadiazol-5-yl)-N-((1-methylpyrrolidin-3-yl)methyl)piperidine-4-carboxamide]", "values": [{"measurement": "Myc Efficacy (−LogEC50)", "result": "+ (+ >3 and <5)"}]}
{"smiles": "COc1ccc(-c2noc(N3CCC(C(=O)NC4CCOCC4)CC3)n2)cc1", "note": "[Compound 254, 1-(3-(4-methoxyphenyl)-1,2,4-oxadiazol-5-yl)-N-(tetrahydro-2H-pyran-4-yl)piperidine-4-carboxamide]", "values": [{"measurement": "Myc Efficacy (−LogEC50)", "result": "+ (+ >3 and <5)"}]}
{"smiles": "COc1ccc(-c2noc(N3CCC(C(=O)NCC4CCOC4)CC3)n2)cc1", "note": "(centres unmarked) [Compound 255, 1-(3-(4-methoxyphenyl)-1,2,4-oxadiazol-5-yl)-N-((tetrahydrofuran-3-yl)methyl)piperidine-4-carboxamide]", "values": [{"measurement": "Myc Efficacy (−LogEC50)", "result": "+ (+ >3 and <5)"}]}
{"smiles": "COc1ccc(-c2noc(N3CCC(C(=O)N[C@H]4C[C@@H](OC)C4)CC3)n2)cc1", "note": "[Compound 256, N-((1s,3s)-3-methoxycyclobutyl)-1-(3-(4-methoxyphenyl)-1,2,4-oxadiazol-5-yl)piperidine-4-carboxamide]", "values": [{"measurement": "Myc Efficacy (−LogEC50)", "result": "+ (+ >3 and <5)"}]}
{"smiles": "COc1ccc(-c2noc(N3CCC(C(=O)NCc4ccccc4N4CCCC4)CC3)n2)cc1", "note": "[Compound 257, 1-(3-(4-methoxyphenyl)-1,2,4-oxadiazol-5-yl)-N-(2-(pyrrolidin-1-yl)benzyl)piperidine-4-carboxamide]", "values": [{"measurement": "Myc Efficacy (−LogEC50)", "result": "+ (+ >3 and <5)"}]}
{"smiles": "COc1ccc(-c2noc(N3CCC(C(=O)NC4(C(O)c5ccccc5)CC4)CC3)n2)cc1", "note": "(centres unmarked) [Compound 258, N-(1-(hydroxy(phenyl)methyl)cyclopropyl)-1-(3-(4-methoxyphenyl)-1,2,4-oxadiazol-5-yl)piperidine-4-carboxamide]", "values": [{"measurement": "Myc Efficacy (−LogEC50)", "result": "+ (+ >3 and <5)"}]}
{"smiles": "COc1ccc(-c2noc(N3CCC(C(=O)N[C@H]4c5ccccc5C[C@H]4O)CC3)n2)cc1", "note": "[Compound 259, N-((1S,2R)-2-hydroxy-2,3-dihydro-1H-inden-1-yl)-1-(3-(4-methoxyphenyl)-1,2,4-oxadiazol-5-yl)piperidine-4-carboxamide]", "values": [{"measurement": "Myc Efficacy (−LogEC50)", "result": "+ (+ >3 and <5)"}]}
{"smiles": "COc1ccc(-c2noc(N3CCC(C(=O)NCC(C)(O)c4ccccc4)CC3)n2)cc1", "note": "(centres unmarked) [Compound 260, N-(2-hydroxy-2-phenylpropyl)-1-(3-(4-methoxyphenyl)-1,2,4-oxadiazol-5-yl)piperidine-4-carboxamide]", "values": [{"measurement": "Myc Efficacy (−LogEC50)", "result": "+ (+ >3 and <5)"}]}
{"smiles": "COc1ccc(-c2noc(N3CCC(C(=O)NC4=NCCS4)CC3)n2)cc1", "note": "[Compound 261, N-(4,5-dihydrothiazol-2-yl)-1-(3-(4-methoxyphenyl)-1,2,4-oxadiazol-5-yl)piperidine-4-carboxamide]", "values": [{"measurement": "Myc Efficacy (−LogEC50)", "result": "+ (+ >3 and <5)"}]}
{"smiles": "COc1ccc(-c2noc(N3CCC(C(=O)NC(CO)c4cccs4)CC3)n2)cc1", "note": "(centres unmarked) [Compound 262, N-(2-hydroxy-1-(thiophen-2-yl)ethyl)-1-(3-(4-methoxyphenyl)-1,2,4-oxadiazol-5-yl)piperidine-4-carboxamide]", "values": [{"measurement": "Myc Efficacy (−LogEC50)", "result": "+ (+ >3 and <5)"}]}
{"smiles": "COc1ccc(-c2noc(N3CCC(C(=O)NC(C)Cc4ccccn4)CC3)n2)cc1", "note": "(centres unmarked) [Compound 263, 1-(3-(4-methoxyphenyl)-1,2,4-oxadiazol-5-yl)-N-(1-(pyridin-2-yl)propan-2-yl)piperidine-4-carboxamide]", "values": [{"measurement": "Myc Efficacy (−LogEC50)", "result": "− (− ≤3)"}]}
{"smiles": "COc1ccc(-c2noc(N3CCC(C(=O)NC4(c5ccccc5)CC4)CC3)n2)cc1", "note": "[Compound 264, 1-(3-(4-methoxyphenyl)-1,2,4-oxadiazol-5-yl)-N-(1-phenylcyclopropyl)piperidine-4-carboxamide]", "values": [{"measurement": "Myc Efficacy (−LogEC50)", "result": "+ (+ >3 and <5)"}]}
{"smiles": "COc1ccc(-c2noc(N3CCC(C(=O)N[C@@H](CO)c4ccccc4)CC3)n2)cc1", "note": "[Compound 265, (R)-N-(2-hydroxy-1-phenylethyl)-1-(3-(4-methoxyphenyl)-1,2,4-oxadiazol-5-yl)piperidine-4-carboxamide]", "values": [{"measurement": "Myc Efficacy (−LogEC50)", "result": "+ (+ >3 and <5)"}]}
{"smiles": "COc1ccc(-c2noc(N3CCC(C(=O)N[C@@H](C)c4ccccc4F)CC3)n2)cc1", "note": "[Compound 266, (S)-N-(1-(2-fluorophenyl)ethyl)-1-(3-(4-methoxyphenyl)-1,2,4-oxadiazol-5-yl)piperidine-4-carboxamide]", "values": [{"measurement": "Myc Efficacy (−LogEC50)", "result": "+ (+ >3 and <5)"}]}
{"smiles": "Cc1ccc(CN2CC(CNC(=O)C3CCN(c4nc(-c5ccc(C#N)cc5)no4)CC3)CC2=O)cc1", "note": "(centres unmarked) [Compound 267, 1-(3-(4-cyanophenyl)-1,2,4-oxadiazol-5-yl)-N-((1-(4-methylbenzyl)-5-oxopyrrolidin-3-yl)methyl)piperidine-4-carboxamide]", "values": [{"measurement": "Myc Efficacy (−LogEC50)", "result": "++ (++ ≥5 and <6)"}]}
{"smiles": "Cc1ccc(CN2CC(CNC(=O)N3CCN(c4nc(-c5ccc(C#N)cc5)no4)CC3)CC2=O)cc1", "note": "(centres unmarked) [Compound 268, 4-(3-(4-cyanophenyl)-1,2,4-oxadiazol-5-yl)-N-((1-(4-methylbenzyl)-5-oxopyrrolidin-3-yl)methyl)piperazine-1-carboxamide]", "values": [{"measurement": "Myc Efficacy (−LogEC50)", "result": "++ (++ ≥5 and <6)"}]}
{"smiles": "COc1ccc(-c2noc(N3CCC(C(=O)NCCN4CCCC4(C)C)CC3)n2)cc1", "note": "[Compound 269, N-(2-(2,2-dimethylpyrrolidin-1-yl)ethyl)-1-(3-(4-methoxyphenyl)-1,2,4-oxadiazol-5-yl)piperidine-4-carboxamide]", "values": [{"measurement": "Myc Efficacy (−LogEC50)", "result": "+ (+ >3 and <5)"}]}
{"smiles": "COc1ccc(-c2noc(N3CCC(C(=O)NCC4(O)CCCCC4)CC3)n2)cc1", "note": "[Compound 270, N-((1-hydroxycyclohexyl)methyl)-1-(3-(4-methoxyphenyl)-1,2,4-oxadiazol-5-yl)piperidine-4-carboxamide]", "values": [{"measurement": "Myc Efficacy (−LogEC50)", "result": "+ (+ >3 and <5)"}]}
{"smiles": "COc1ccc(-c2noc(N3CCC(C(=O)NC4CC5(C4)CN(C)C5)CC3)n2)cc1", "note": "[Compound 271, 1-(3-(4-methoxyphenyl)-1,2,4-oxadiazol-5-yl)-N-(2-methyl-2-azaspiro[3.3]heptan-6-yl)piperidine-4-carboxamide]", "values": [{"measurement": "Myc Efficacy (−LogEC50)", "result": "+ (+ >3 and <5)"}]}
{"smiles": "COc1ccc(-c2noc(N3CCC(C(=O)NC[C@H]4CC(C)(C)O4)CC3)n2)cc1", "note": "[Compound 272, (R)-N-((4,4-dimethyloxetan-2-yl)methyl)-1-(3-(4-methoxyphenyl)-1,2,4-oxadiazol-5-yl)piperidine-4-carboxamide]", "values": [{"measurement": "Myc Efficacy (−LogEC50)", "result": "+ (+ >3 and <5)"}]}
{"smiles": "COc1ccc(-c2noc(N3CCC(C(=O)NCC4(c5ccccc5)CCOCC4)CC3)n2)cc1", "note": "[Compound 273, 1-(3-(4-methoxyphenyl)-1,2,4-oxadiazol-5-yl)-N-((4-phenyltetrahydro-2H-pyran-4-yl)methyl)piperidine-4-carboxamide]", "values": [{"measurement": "Myc Efficacy (−LogEC50)", "result": "− (− ≤3)"}]}
{"smiles": "COc1ccc(-c2noc(N3CCC(C(=O)N[C@@H]4CC[C@H](O)C4)CC3)n2)cc1", "note": "[Compound 274, N-((1R,3S)-3-hydroxycyclopentyl)-1-(3-(4-methoxyphenyl)-1,2,4-oxadiazol-5-yl)piperidine-4-carboxamide]", "values": [{"measurement": "Myc Efficacy (−LogEC50)", "result": "+ (+ >3 and <5)"}]}
{"smiles": "COc1ccc(-c2noc(N3CCC(C(=O)NC4CCC(F)(F)C4)CC3)n2)cc1", "note": "(centres unmarked) [Compound 275, N-(3,3-difluorocyclopentyl)-1-(3-(4-methoxyphenyl)-1,2,4-oxadiazol-5-yl)piperidine-4-carboxamide]", "values": [{"measurement": "Myc Efficacy (−LogEC50)", "result": "+ (+ >3 and <5)"}]}
{"smiles": "COc1ccc(-c2noc(N3CCC(C(=O)NC[C@H](C)OC)CC3)n2)cc1", "note": "[Compound 276, (S)-1-(3-(4-methoxyphenyl)-1,2,4-oxadiazol-5-yl)-N-(2-methoxypropyl)piperidine-4-carboxamide]", "values": [{"measurement": "Myc Efficacy (−LogEC50)", "result": "+ (+ >3 and <5)"}]}
{"smiles": "COc1ccc(-c2noc(N3CCC(C(=O)NC4(Cc5ccccc5)COC4)CC3)n2)cc1", "note": "[Compound 277, N-(3-benzyloxetan-3-yl)-1-(3-(4-methoxyphenyl)-1,2,4-oxadiazol-5-yl)piperidine-4-carboxamide]", "values": [{"measurement": "Myc Efficacy (−LogEC50)", "result": "+ (+ >3 and <5)"}]}
